Test results published in publication PMC11497205, “Gold(I) Complexes Based on Nonsteroidal Anti-Inflammatory Derivatives as Multi-Target Drugs against Colon Cancer” (Inorganic Chemistry, 2024).

Experiments:
COX-1 = target: T1, COX-1 (Homo sapiens, UniProt P23219); experiment: Intracellular COX-1 activity, kit on Caco-2/TC7 cell lysates; type: cell-based; details: Caco-2/TC7 cells, 24 h incubation with 20 μM of free ligands, mean ± SEM
T1 construct: a cyclooxygenase activity assay kit starting from Caco-2/TC7 cell lysates was used; endogenous in cells; host or cells: Caco-2/TC7 (human colon carcinoma)
Source text: (§1) Previous studies have shown that modifications in the structure of the naproxen molecule have led to effective inhibition of COX-2, with a high degree of selectivity compared to the COX-1 isoform.[63],[64] Thus, we have tested the inhibitory activity of the best active compounds [Au(L3)(JohnPhos)] […] For this purpose, a cyclooxygenase activity assay kit starting from Caco-2/TC7 cell lysates was used, aiming to develop a new class of inhibitors that present a balanced COX-1/COX-2 inhibition to control the severe side effects resulting from nonselective COX inhibition. Inhibition of COX enzymes is expressed as the percentage of inhibition relative to control COX-1 or COX-2 activity. […] Complex [Au(L4)(JohnPhos)] […] This fact underscores the importance of the coordination of the metal center to the NSAID derivative, since the presence of the gold center is essential for achieving selectivity toward the COX-2 isoform, similar to what is observed in other gold compounds for different biomolecules.[65],[66]
(§2) The interaction of metal complexes with the enzyme cyclooxygenase was analyzed using a cyclooxygenase (COX) Activity Assay Kit (fluorometric) (AB204699 Abcam Inc. Massachusetts, USA). The procedural guidelines of the supplied kit were followed. The reaction commenced with the introduction of AA.

COX-2 = target: T2, COX-2 (Homo sapiens, UniProt P35354); experiment: Intracellular COX-2 activity, kit on Caco-2/TC7 cell lysates; type: cell-based; details: Caco-2/TC7 cells, 24 h incubation with 20 μM of free ligands, mean ± SEM
T2 construct: a cyclooxygenase activity assay kit starting from Caco-2/TC7 cell lysates was used; endogenous in cells; host or cells: Caco-2/TC7 (human colon carcinoma)
T2 sequence (P35354 18-604): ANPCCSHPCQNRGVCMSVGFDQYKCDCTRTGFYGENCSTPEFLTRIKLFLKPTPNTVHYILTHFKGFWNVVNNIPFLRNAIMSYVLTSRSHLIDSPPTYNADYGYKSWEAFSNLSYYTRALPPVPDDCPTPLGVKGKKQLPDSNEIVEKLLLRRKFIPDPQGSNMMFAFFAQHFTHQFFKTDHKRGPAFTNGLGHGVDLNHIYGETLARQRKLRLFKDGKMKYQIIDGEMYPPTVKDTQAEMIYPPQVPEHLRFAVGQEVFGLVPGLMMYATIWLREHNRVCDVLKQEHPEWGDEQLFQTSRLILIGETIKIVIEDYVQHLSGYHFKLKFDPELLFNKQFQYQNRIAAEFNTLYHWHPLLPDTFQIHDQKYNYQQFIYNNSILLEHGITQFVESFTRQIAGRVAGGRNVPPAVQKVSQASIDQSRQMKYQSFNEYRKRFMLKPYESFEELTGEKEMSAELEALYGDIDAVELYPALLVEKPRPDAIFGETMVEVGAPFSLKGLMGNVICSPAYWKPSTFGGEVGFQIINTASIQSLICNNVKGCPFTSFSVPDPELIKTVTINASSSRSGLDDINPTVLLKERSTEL
Source text: as §1, §2

Caco-2/TC7 cells = experiment: MTT antiproliferative assay on Caco-2/TC7 colon cancer cells; type: cell-based, human; details: 72 h incubation, undifferentiated cells, mean ± SE
Source text: The antiproliferative effect of the reference drug auranofin was included as positive control. […] However, the coordination of the gold-phosphane unit to these ligands derived from NSAIDs leads to much more cytotoxic complexes, as can be observed in Table 1 with IC50 values in the range of that found in auranofin or even lower values for complexes [Au(L1)(CyJohnPhos)] (1a), [Au(L4)(CyJohnPhos)] […] This fact has already been observed previously in related gold complexes with an alkyne ligand derived from naproxen molecule,[43] which makes naproxen an excellent pharmacophore when coordinated to gold(I).
The human Caco-2 cell line (TC7 clone) was kindly provided by Dr. Edith Brot-Laroche (Université Pierre et Marie Curie-Paris 6, UMR S 872, Les Cordeliers, France), Human epithelial fibroblast cells (NHDF-Ad, Lonza, Porriño, Spain) were kindly provided by Dr. Gracia Mendoza (Aragon Health Research Institute, IIS Aragón, Spain). Caco-2 cells (passages 36–48) and fibroblasts (passages 10–20) were maintained in a humidified atmosphere of 5% CO2 at 37 °C in Dulbecco’s Modified Eagles medium (DMEM) (Gibco Invitrogen. Paisley. UK) supplemented with 20% fetal bovine serum, 1% nonessential amino acids, 1% penicillin (1000 U/mL), 1% streptomycin ([…]) and 1% amphotericin (250 U/mL). The Caco-2 cells were subcultured in 25 cm^2 plastic flasks at a density of 3 × 10^5 cells/cm^2, while the fibroblasts were subcultured on 75 cm^2 plastic flasks at a density of 1 × 10^4 cells/cm^2. The culture medium was replaced every 2 days.
The gold complexes were diluted in dimethyl sulfoxide (DMSO) as a 10 mM stock solution and then diluted in a cell culture medium at the desired concentrations. For the cytotoxicity screening assays, Caco-2 cells were seeded in 96-well plates at a density of 4 × 10^3 cells/well. […] The antiproliferative effect was measured using an MTT assay, as previously described by Marmol et al.[93] The absorbance at 540/620 nm was measured using a SPECTROstar Nano (BMG Labtech. Ortenberg. Germany). […]

[1] = Distribution coefficient log D7.4; type: physicochemical; details: pH 7.4
Source text: Table 1 Distribution Coefficients and IC50 (μM) ^b Values of the Complexes on Caco-2/TC7 Cancer Cells Compared with Auranofin ^a | column: log D7.4

T1 sequence (P23219 24-599): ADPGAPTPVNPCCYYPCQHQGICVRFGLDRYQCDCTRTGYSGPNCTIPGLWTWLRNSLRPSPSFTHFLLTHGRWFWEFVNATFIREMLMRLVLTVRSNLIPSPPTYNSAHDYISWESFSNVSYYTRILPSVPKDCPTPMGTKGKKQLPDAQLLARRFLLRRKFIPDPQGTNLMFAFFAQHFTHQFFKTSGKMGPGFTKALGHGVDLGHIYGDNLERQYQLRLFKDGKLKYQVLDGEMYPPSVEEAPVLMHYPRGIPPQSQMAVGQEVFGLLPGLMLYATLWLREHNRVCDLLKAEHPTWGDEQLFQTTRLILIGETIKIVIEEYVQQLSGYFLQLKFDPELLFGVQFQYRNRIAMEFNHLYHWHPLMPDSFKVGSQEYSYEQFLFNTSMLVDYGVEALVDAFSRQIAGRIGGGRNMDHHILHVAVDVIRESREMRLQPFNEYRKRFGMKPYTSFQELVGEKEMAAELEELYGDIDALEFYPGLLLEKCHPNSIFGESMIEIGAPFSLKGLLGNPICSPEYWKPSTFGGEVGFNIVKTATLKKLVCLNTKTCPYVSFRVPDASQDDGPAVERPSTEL

Row | Percent inhibition of COX-1 (COX-1) | Percent inhibition of COX-2 (COX-2) | IC50 (Caco-2/TC7 cells) | Compound | log D7.4 [1]
1 | 15.9 ± 7.3% | 55.8 ± 8.1% | – | COC(=O)[C@H](CCSC)NC(=O)C(C)c1ccc(CC(C)C)cc1 (stereo partly drawn) [L2, Methyl (2-(4-Isobutylphenyl)propanoyl)methioninate] | –
2 | 22.9 ± 10.7% | 53.6 ± 14.3% | – | COC(=O)C(CCSC)NC(=O)Cc1c(C)n(C(=O)c2ccc(Cl)cc2)c2ccc(OC)cc12 (stereo not drawn) [L3] | –
3 | 15.2 ± 5.7% | 63.1 ± 8.9% | – | COC(=O)[C@H](CCSC)NC(=O)c1ccccc1Nc1cccc(C)c1C [L1, Methyl (2-((2,3-Dimethylphenyl)amino)benzoyl)methioninate] | –
4 | 36.9 ± 7.6% | 44.7 ± 13.4% | – | COC(=O)[C@H](CCSC)NC(=O)[C@@H](C)c1ccc2cc(OC)ccc2c1 [L4, Methyl ((S)-2-(6-Methoxynaphthalen-2-yl)propanoyl)methioninate] | –

Further lines, the molecule ahead of its results:

Row | Compound | Percent inhibition of COX-1 (COX-1) | Percent inhibition of COX-2 (COX-2) | IC50 (Caco-2/TC7 cells) | log D7.4 [1]
5 | CC#N.CC(C)(C)P(c1ccccc1-c1ccccc1)C(C)(C)C.[Au+].[F][Sb-]([F])([F])([F])([F])[F] [[Au(MeCN)(JohnPhos)]SbF6, reference compound] | – | – | 900 ± 760 nM | –
6 | CC#N.[Au+].[F][Sb-]([F])([F])([F])([F])[F].c1ccc(-c2ccccc2P(C2CCCCC2)C2CCCCC2)cc1 [[Au(MeCN)(CyJohnPhos)]SbF6, reference compound] | – | – | 1240 ± 670 nM | –
7 | CC[PH](CC)(CC)[Au][S][C@@H]1O[C@H](COC(C)=O)[C@@H](OC(C)=O)[C@H](OC(C)=O)[C@H]1OC(C)=O [Auranofin, reference compound] | – | – | 1800 ± 100 nM | –2.53
